Columns and labels:
[1] = tested on: SD rats; test: Acute administration of A28 at multiple doses, glucose tolerance of SD rats; assay type: in vivo, rat; details: for AUC0-2 h / Average hypoglycemic rate % (0-2 h) / Blood glucose level 15 min / Blood glucose level 30 min / Blood glucose level 60 min / Blood glucose level 90 min / Blood glucose level 120 min / Blood glucose level 0: SD rats OGTT; for Blood glucose level 0: before sugar
Description: (1) 80 SD rats were selected and starved overnight, took water freely, then randomly divided into 10 groups according to body weight and random blood glucose, 8 rats in each group. […] 1 h after oral gavage, 3 g/kg of glucose was orally administered to each group except blank control group, and the blood glucose level was monitored before the sugar administration, and at 15, 30, 60, 90 and 120 minutes after the sugar administration.
Average hypoglycemic rate %=(AUC0-120 min of solvent control group−AUC0-120 min of administration group)/(AUC0-120 min of solvent control group−AUC0-120 min of blank control group)*100%

[2] = tested on: db/db mice; test: Chronic administration, fasting blood glucose in db/db mice; assay type: in vivo, mouse; details: for fasting blood glucose Pre: before administration; for Hypoglycemic rate % week 1 / Hypoglycemic rate % week 2 / Hypoglycemic rate % week 3 / Hypoglycemic rate % week 4: fasting blood glucose
Description: (§1) Oral gavage administrated, daily dose volume was 10 mL/kg, administered once daily. Administration time was 9: 00-10:00 daily, and the administration period was 5 weeks.
The random blood glucose of mice in the normal control group, model control group, test substance administration group and positive control group were determined on the 7th, 14th, 21st, 28th day (9: 00-10:00) every week after the first administration, and food was removed and after 6 hours of starvation, the fasting blood glucose in each group was measured. Free drinking during the hunger process. The rate of decrease of blood glucose was calculated according to the following formula: Average hypoglycemic rate %=(Blood glucose of model control group−Blood glucose of administration group)/Model control group×100%

[3] = tested on: db/db mice; test: Chronic administration, glucose-stimulated insulin release in db/db mice; assay type: in vivo, mouse; details: for Insulin AUC / Insulin (ng/ml) 0 min / Insulin (ng/ml) 15 min / Insulin (ng/ml) 30 min / Insulin (ng/ml) 60 min / Insulin (ng/ml) pre: glucose-stimulated insulin release, chronic administration
Description: as §1
The fourth week after administration, the mice were starved for 6 hours after morning administration and were orally administrated with glucose (1.5 g/kg), and blood was collected from the tail (10 μL EDTA+20 μL tail blood). Centrifuged and the supernatant was taken, stored at −20° C. for insulin test.

[4] = tested on: SD rats; test: Acute administration of A28 at multiple doses, urinary glucose of SD rats; assay type: in vivo, rat; details: within 24 h
Description: (1) 72 normal male SD rats were selected and randomly divided into 9 groups according to body weight and blood glucose, 8 in each group. […] After oral gavage, the rats were placed in rats metabolic cages, and urine was collected after 24 h, and the urine volume was recorded, then preserved under −20° C. Rats take food and water freely during the experimental period.
(2) Index Determination: Glucose levels in urine are measured by the glucose assay kit.

## CCc1ccc(Cc2cc3c(cc2Cl)CO[C@]32O[C@H](C)[C@@H](O)[C@H](O)[C@H]2O)s1 [Example A28, (1S,3′R,4′S,5′S,6′R)-6′-methyl-6-((5-ethylthienyl)-2-methyl)-5-chloro-3′,4′,5′,6′-tetrahydro-3H-spiro[isobenzofuran-1,2′-pyran]-3′,4′,5′-triol]
[1]; oral 0.3 mg/kg
  AUC0-2 h: 19.1 ± 1.77 mmol·h/L
  Average hypoglycemic rate % (0-2 h): 10.3%
  Blood glucose level 15 min: 7.6 ± 0.8 mmol/L
  Blood glucose level 30 min: 10.1 ± 1.6 mmol/L
  Blood glucose level 60 min: 11.1 ± 1.3 mmol/L
  Blood glucose level 90 min: 10.5 ± 0.8 mmol/L
  Blood glucose level 120 min: 8.1 ± 1.3 mmol/L
  Blood glucose level 0: 5.0 ± 0.7 mmol/L
[1]; oral 1 mg/kg
  AUC0-2 h: 15.6 ± 0.9 mmol·h/L
  Average hypoglycemic rate % (0-2 h): 45.0%
  Blood glucose level 15 min: 5.4 ± 0.9 mmol/L
  Blood glucose level 30 min: 6.5 ± 1.1 mmol/L
  Blood glucose level 60 min: 8.4 ± 0.6 mmol/L
  Blood glucose level 90 min: 9.6 ± 1.2 mmol/L
  Blood glucose level 120 min: 9.0 ± 1.3 mmol/L
  Blood glucose level 0: 4.4 ± 0.3 mmol/L
[1]; oral 3 mg/kg
  AUC0-2 h: 11.6 ± 0.9 mmol·h/L
  Average hypoglycemic rate % (0-2 h): 83.7%
  Blood glucose level 15 min: 3.6 ± 0.5 mmol/L
  Blood glucose level 30 min: 4.3 ± 0.3 mmol/L
  Blood glucose level 60 min: 5.6 ± 0.7 mmol/L
  Blood glucose level 90 min: 7.4 ± 0.6 mmol/L
  Blood glucose level 120 min: 8.4 ± 1.6 mmol/L
  Blood glucose level 0: 3.7 ± 0.4 mmol/L
[1]; oral 10 mg/kg
  AUC0-2 h: 7.6 ± 0.9 mmol·h/L
  Average hypoglycemic rate % (0-2 h): 122.4%
  Blood glucose level 15 min: 3.0 ± 0.4 mmol/L
  Blood glucose level 30 min: 3.4 ± 0.4 mmol/L
  Blood glucose level 60 min: 4.3 ± 1.8 mmol/L
  Blood glucose level 90 min: 4.2 ± 0.4 mmol/L
  Blood glucose level 120 min: 3.7 ± 0.9 mmol/L
  Blood glucose level 0: 3.1 ± 0.4 mmol/L
[1]; SD rats, single oral dose
  2 h hypoglycemic effect compared with Dapagliflozin: equivalent 2 h hypoglycemic effect to positive Dapagliflozin
[2]; 0.3 mg/kg once daily oral
  fasting blood glucose week 1: 10.6 ± 0.9 mmol/L
  fasting blood glucose week 2: 10.5 ± 0.8 mmol/L
  fasting blood glucose week 3: 12.3 ± 0.9 mmol/L
  fasting blood glucose week 4: 12.6 ± 1.2 mmol/L
  fasting blood glucose Pre: 13.2 ± 0.7 mmol/L
  Hypoglycemic rate % week 1: 21.4%
  Hypoglycemic rate % week 2: 52.3%
  Hypoglycemic rate % week 3: 30.6%
  Hypoglycemic rate % week 4: 21.1%
[2]; 1 mg/kg once daily oral
  fasting blood glucose week 1: 8.7 ± 0.6 mmol/L
  fasting blood glucose week 2: 9.4 ± 0.9 mmol/L
  fasting blood glucose week 3: 10.4 ± 1.0 mmol/L
  fasting blood glucose week 4: 10.0 ± 0.7 mmol/L
  fasting blood glucose Pre: 13.2 ± 1.3 mmol/L
  Hypoglycemic rate % week 1: 35.0%
  Hypoglycemic rate % week 2: 57.2%
  Hypoglycemic rate % week 3: 41.5%
  Hypoglycemic rate % week 4: 37.8%
[2]; 3 mg/kg once daily oral
  fasting blood glucose week 1: 8.6 ± 0.5 mmol/L
  fasting blood glucose week 2: 6.8 ± 0.6 mmol/L
  fasting blood glucose week 3: 8.1 ± 0.5 mmol/L
  fasting blood glucose week 4: 8.5 ± 0.6 mmol/L
  fasting blood glucose Pre: 13.5 ± 1.5 mmol/L
  Hypoglycemic rate % week 1: 36.2%
  Hypoglycemic rate % week 2: 69.2%
  Hypoglycemic rate % week 3: 54.2%
  Hypoglycemic rate % week 4: 46.8%
[2]; 10 mg/kg once daily oral
  fasting blood glucose week 1: 7.6 ± 0.6 mmol/L
  fasting blood glucose week 2: 6.9 ± 0.5 mmol/L
  fasting blood glucose week 3: 7.2 ± 0.6 mmol/L
  fasting blood glucose week 4: 7.3 ± 0.5 mmol/L
  fasting blood glucose Pre: 13.8 ± 1.2 mmol/L
  Hypoglycemic rate % week 1: 43.2%
  Hypoglycemic rate % week 2: 68.9%
  Hypoglycemic rate % week 3: 59.5%
  Hypoglycemic rate % week 4: 54.5%
[2]; four weeks chronic administration
  effective dose, fasting blood glucose, random blood glucose and HbA1c reduction: 0.3 mg/kg
[3]; four weeks chronic administration, 0.3 mg/kg and 1 mg/kg
  glucose-stimulated insulin release: significantly improved glucose-stimulated insulin release in db/db mice in a dose-dependent manner
[3]; dose 0.3 mg/kg
  Insulin AUC: 43.85 ± 5.69
  Insulin (ng/ml) 0 min: 21.58 ± 2.48 ng/mL
  Insulin (ng/ml) 15 min: 51.67 ± 7.86 ng/mL
  Insulin (ng/ml) 30 min: 46.22 ± 8.10 ng/mL
  Insulin (ng/ml) 60 min: 43.61 ± 4.85 ng/mL
  Insulin (ng/ml) pre: 7.68 ± 0.79 ng/mL
[3]; dose 1 mg/kg
  Insulin AUC: 35.92 ± 5.00
  Insulin (ng/ml) 0 min: 17.47 ± 2.20 ng/mL
  Insulin (ng/ml) 15 min: 41.94 ± 8.42 ng/mL
  Insulin (ng/ml) 30 min: 40.07 ± 7.01 ng/mL
  Insulin (ng/ml) 60 min: 32.89 ± 3.69 ng/mL
  Insulin (ng/ml) pre: 7.86 ± 0.94 ng/mL
[3]; dose 3 mg/kg
  Insulin AUC: 32.49 ± 5.92
  Insulin (ng/ml) 0 min: 17.57 ± 4.54 ng/mL
  Insulin (ng/ml) 15 min: 38.42 ± 8.58 ng/mL
  Insulin (ng/ml) 30 min: 36.06 ± 8.77 ng/mL
  Insulin (ng/ml) 60 min: 28.68 ± 8.81 ng/mL
  Insulin (ng/ml) pre: 7.92 ± 1.60 ng/mL
[3]; dose 10 mg/kg
  Insulin AUC: 17.20 ± 1.59
  Insulin (ng/ml) 0 min: 9.02 ± 0.59 ng/mL
  Insulin (ng/ml) 15 min: 16.70 ± 2.42 ng/mL
  Insulin (ng/ml) 30 min: 13.42 ± 1.94 ng/mL
  Insulin (ng/ml) 60 min: 27.45 ± 4.43 ng/mL
  Insulin (ng/ml) pre: 7.45 ± 1.00 ng/mL
[4]; oral 0.3 mg/kg
  Total sugar excretion: 10.55 ± 10.05 mg/100 g
  Urine concentration: 8.70 ± 1.98 mmol/L
  Urine volume: 16.25 ± 1.50 mL
[4]; oral 1 mg/kg
  Total sugar excretion: 149.08 ± 0.00 mg/100 g
  Urine concentration: 105.56 ± 0.00 mmol/L
  Urine volume: 19.25 ± 0.00 mL
[4]; oral 3 mg/kg
  Total sugar excretion: 441.27 ± 50.75 mg/100 g
  Urine concentration: 257.69 ± 32.96 mmol/L
  Urine volume: 25.00 ± 2.06 mL
[4]; oral 10 mg/kg
  Total sugar excretion: 1028.20 ± 83.93 mg/100 g
  Urine concentration: 359.48 ± 29.43 mmol/L
  Urine volume: 39.75 ± 1.57 mL
[4]; single oral 0.3, 1, 3 and 10 mg/kg
  urine glucose excretion: significantly promoted in a dose-dependent manner

Reference: patent US10550143B2, “C,O-spiro aryl glycoside compounds, preparation therefor and use thereof” (SHANGHAI INSTITUTE OF MATERIA MEDICA, CHINESE ACADEMY OF …, priority 2015, dated 2020)
